According to publication PMC11189555, “Aryl amino acetamides prevent Plasmodium falciparum ring development via targeting the lipid-transfer protein PfSTART1” (Nature Communications, 2024):
Values joined by “and” are separate entries in the source; they are usually repeats but may differ in a detail not shown here. Equal entries are not always repeated. “Also recorded” adds a separate entry of the source. Where two headings read alike, the source gives them in different places.

Columns and labels:
SLI-N309K parasites = assay: Growth inhibition assay (72 h, LDH activity); type: cell-based, Plasmodium falciparum; details: for Growth inhibition, (1 - av / DMSO) x 100: Fig 2B source data, per biological replicate; for sample/DMSO: START(N309K), biological replicates 1-4; for EC50: Plasmodium falciparum
Protocol: Parasite growth assays with inhibitory compounds were performed as per[11] and are fully described in the Supplementary Information.
Molecular biology and transfection of P. falciparum: Selection Linked Integration […]
To introduce the PfSTART1 mutations, the second half of the coding sequence of pfstart1 (PF3D7_0104200), was recodonised without introns to the bias of Saccharomyces cerevisiae containing either WT, N309K or N330K mutations, and synthesised as gBlock fragments (Integrated DNA Technologies). The first 819 bp of the 5′ native sequence of pfstart1 was amplified from gDNA, to form the 5’ homology block (5’ HB). The 3′ recodonised gBlock fragment comprising of the last 552 bp of either the WT, N309K or N330K pfstart1 to form the ‘recodon’ block (primers listed in Table S2). The 5’ HB and recodon products were sewn together by overlapping PCR to reconstitute the full coding sequence of pfstart1. These blocks (WT/N309K/N330K) were digested with BglII/PstI, and inserted into the parasite vector p-HA-2A-Neo-glmS
1. This plasmid contains an in -frame haemagglutinin (HA) epitope for protein identification and a P2A peptide (2A) to skip continuous peptide bond synthesis of a downstream neomycin resistance gene ( NeoR).
Parasites containing the transfected DNA were selected using 2.5 nM WR99210 (Jacobus). To select for parasites in which single crossover integration had occurred into the pfstart1 locus, parasites were treated with 400 μg/mL G418 (geniticin, Sigma Aldrich) for 14 days: only parasites that have integrated the construct into their genome expressed the neomycin resistance gene together with the PfSTART1 protein.
Parasite lines were cloned using limiting dilution. These clones were then tested on Western Blot (for correct HA-tagging and protein size), and correct integration and sequence were tested by PCR analysis: PCR on the gDNA was conducted using the primers START_5’UTR.F and START_Seq.R (Table S2). […]
Growth inhibition assays. Synchronised ring-stage parasites (0.3-0.6% parasitemia, 2% haematocrit) were grown for 72 h in a serial-dilution of the compound under […]
and compound 4. Note that M-833 was first purchased from MolPort (MolPort -002-267-916) then made in-house at WEHI: the differences observed in EC50s across experiments are attributed to the different batches of M -833. For some experiments, 0, 0.25 or 2.5 mM of glucosamine (GlcN) was also added. Experiments were set up in technical duplicates or triplicates. Following a freeze -thaw cycle, lactate dehydrogenase (LDH) activity was assessed as an indicator of parasite growt h 5. 30 μL of parasite culture was incubated for 30 min in the dark with 75 μL Malstat mixture (0.1 M Tris pH 9.0, 20 g/L lactic acid, pH 7.5, 0.2% Triton-X100, 0.5 g/L acetylpyridine adenine dinucleotide (APAD, Sigma), 200 μg/mL nitroblue tetrazolium (NBT; Sigma), 1 μg/mL phenozine ethosulfate (PES; Sigma)). Absorbance was then measured at 650 nm, transformed using the formula below, plotted against the logarithm of the concentrations, and a non-linear regression (log(inhibitor) vs. response, variable slope) was calculated using GraphPad Prism to assess the half-inhibitory […]
Growth inhibition % = (1 − average(sample)− average(uRBC)) ∗ 100 […]
The DMSO samples were also used to assess growth of parasite in the presence of 0.25 and 2.5 mM GlcN (normalised by DMSO in 0 mM GlcN).
Egress, invasion & recovery assay. To measure egress, invasion and follow up recovery in the presence of different compounds, we adapted the method developed in6, using Hyp1-Nluc parasites7. These parasites episomally express the exported PEXEL protein Hyp1 (PF3D7_0113300) tagged with a NanoLuc luciferase (NLuc) and were selected with 2.5 nM WR99210 (Jacobus). Highly synchronised schizonts were obtained using ML10 (LifeArc) and sorbitol synchronisation, and Percoll-purified (the culture was gently layered over 67% Percoll (Cytiva) in RPMI, and centrifuged for 15 min at 1500 g and the schizont layer was collected and washed). […]

P. falciparum merozoites = system: P. falciparum merozoites; set-up: method as in earlier work; details: live cell imaging; ref 11 (Dans et al 2020); cited from earlier work
P. berghei = details: at concentrations that are effective against P. falciparum; ref Nguyen et al. 2024; cited from earlier work

Cc1cc(Cl)c(S(=O)(=O)N2CCCC2)cc1OCC(=O)NC1CCCCC1 [M-833]
Growth inhibition, (1 - av / DMSO) x 100 (SLI-N309K parasites; SLI-N309K, M-833 conc 0.00304832 (unit not given)): -28.2579% and -1.2093% and -11.368% | Growth inhibition, (1 - av / DMSO) x 100 (SLI-N309K parasites; SLI-N309K, M-833 conc 0.00914495 (unit not given)): -16.5589% and 4.977% and -8.756% | Growth inhibition, (1 - av / DMSO) x 100 (SLI-N309K parasites; SLI-N309K, M-833 conc 0.0274348 (unit not given)): -9.0535% and 17.7442% and 3.575% | Growth inhibition, (1 - av / DMSO) x 100 (SLI-N309K parasites; SLI-N309K, M-833 conc 0.0823045 (unit not given)): -11.797% and 21.4186% and -2.462% | Growth inhibition, (1 - av / DMSO) x 100 (SLI-N309K parasites; SLI-N309K, M-833 conc 0.246914 (unit not given)): -0.0196% and 23.5116% and 10.1477% | Growth inhibition, (1 - av / DMSO) x 100 (SLI-N309K parasites; SLI-N309K, M-833 conc 0.740741 (unit not given)): 27.0233% and 58.6744% and 26.0116% | Growth inhibition, (1 - av / DMSO) x 100 (SLI-N309K parasites; SLI-N309K, M-833 conc 2.22222 (unit not given)): 70.1744% and 76.5116% and 55.7482% | Growth inhibition, (1 - av / DMSO) x 100 (SLI-N309K parasites; SLI-N309K, M-833 conc 6.66667 (unit not given)): 87.2624% and 94.814% and 86.8337% | Growth inhibition, (1 - av / DMSO) x 100 (SLI-N309K parasites; SLI-N309K, M-833 conc 20 (unit not given)): 88.5166% and 95.5116% and 93.0422% | sample/DMSO (SLI-N309K parasites; M-833 0.00152416 uM, 0 mM GlcN): 2.39 | sample/DMSO (SLI-N309K parasites; M-833 0.00152416 uM, 0.25 mM GlcN): 4.826 and 2.498 | sample/DMSO (SLI-N309K parasites; M-833 0.00152416 uM, 2.5 mM GlcN): 6.332 | sample/DMSO (SLI-N309K parasites; M-833 0.00457247 uM, 0 mM GlcN): 13.8723 and 0.5123 and 3.546 and -3.543 | sample/DMSO (SLI-N309K parasites; M-833 0.00457247 uM, 0.25 mM GlcN): 7.1 and 10.4012 and -2.062 and -3.605 | sample/DMSO (SLI-N309K parasites; M-833 0.00457247 uM, 2.5 mM GlcN): 13.3216 and 19.7117 and 1.5728 and -5.599 | sample/DMSO (SLI-N309K parasites; M-833 0.0137174 uM, 0 mM GlcN): 7.619 and -0.2396 and 1.751 and 10.2857 | sample/DMSO (SLI-N309K parasites; M-833 0.0137174 uM, 0.25 mM GlcN): 8.4852 and 5.851 and 4.488 and 5.637 | sample/DMSO (SLI-N309K parasites; M-833 0.0137174 uM, 2.5 mM GlcN): 21.8449 and 8.908 and 5.227 and 1.886 | sample/DMSO (SLI-N309K parasites; M-833 0.0411523 uM, 0 mM GlcN): 1.68 and 3.644 and 4.3 and 2.606 | sample/DMSO (SLI-N309K parasites; M-833 0.0411523 uM, 0.25 mM GlcN): 17.5682 and 13.2615 and 4.177 and 1.848 | sample/DMSO (SLI-N309K parasites; M-833 0.0411523 uM, 2.5 mM GlcN): 19.1718 and 12.6822 and 8.512 and 8.472 | sample/DMSO (SLI-N309K parasites; M-833 0.123457 uM, 0 mM GlcN): 3.306 and 10.0306 and 17.9209 and 10.4229 | sample/DMSO (SLI-N309K parasites; M-833 0.123457 uM, 0.25 mM GlcN): 21.665 and 12.0728 and 20.7856 and 13.6953 | sample/DMSO (SLI-N309K parasites; M-833 0.123457 uM, 2.5 mM GlcN): 31.9676 and 15.6301 and 24.5056 and 24.9447 | sample/DMSO (SLI-N309K parasites; M-833 0.37037 uM, 0 mM GlcN): 13.628 and 22.7795 and 30.4444 and 24.0457 | sample/DMSO (SLI-N309K parasites; M-833 0.37037 uM, 0.25 mM GlcN): 34.9176 and 21.471 and 31.1561 and 33.3027 | sample/DMSO (SLI-N309K parasites; M-833 0.37037 uM, 2.5 mM GlcN): 40.447 and 24.7651 and 37.6894 and 48.2393 | sample/DMSO (SLI-N309K parasites; M-833 1.11111 uM, 0 mM GlcN): 28.3402 and 44.5509 and 44.7966 and 56.0914 | sample/DMSO (SLI-N309K parasites; M-833 1.11111 uM, 0.25 mM GlcN): 53.0252 and 39.9238 and 58.0645 and 67.3975 | sample/DMSO (SLI-N309K parasites; M-833 1.11111 uM, 2.5 mM GlcN): 64.9649 and 41.0107 and 63.8256 and 74.1417 | sample/DMSO (SLI-N309K parasites; M-833 3.33333 uM, 0 mM GlcN): 62.0018 and 73.866 and 73.9333 and 81.5771 | sample/DMSO (SLI-N309K parasites; M-833 3.33333 uM, 0.25 mM GlcN): 83.0296 and 69.5951 and 81.4805 and 87.3149 | sample/DMSO (SLI-N309K parasites; M-833 3.33333 uM, 2.5 mM GlcN): 83.83 and 68.173 and 80.0856 and 88.1096 | sample/DMSO (SLI-N309K parasites; M-833 10 uM, 0 mM GlcN): 89.1663 and 89.2589 and 93.2173 and 92.8571 | sample/DMSO (SLI-N309K parasites; M-833 10 uM, 0.25 mM GlcN): 91.9813 and 85.912 and 92.402 and 91.8609 | sample/DMSO (SLI-N309K parasites; M-833 10 uM, 2.5 mM GlcN): 89.5706 and 77.5672 and 88.9441 and 91.41 | EC50 (SLI-N309K parasites; 72 h, Fig 2B, SLI-N309K, 72 h, n = 3, unit only in x-axis title, read-out: EC50 (95% confidence interval)): 0.992 µM | EC50 (SLI-N309K parasites; Fig 3C, SLI-N309K, 0 mM GlcN, n = 4, unit on plot axis, read-out: EC50 M-833 (95% confidence interval)): 1.62 µM | EC50 (SLI-N309K parasites; Fig 3C, SLI-N309K, 0.25 mM GlcN, n = 4, unit on plot axis, read-out: EC50 M-833 (95% confidence interval)): 0.968 µM | EC50 (SLI-N309K parasites; Fig 3C, SLI-N309K, 2.5 mM GlcN, n = 4, unit on plot axis, read-out: EC50 M-833 (95% confidence interval)): 0.645 µM | fold more resistant than the 3D7 parental parasites (SLI-N309K parasites; SLI-N309K, Fig 2B): 10 fold | fold reduction of EC50 on addition of 2.5 mM GlcN (SLI-N309K parasites; SLI-N309K, not statistically significant): 2.5 fold | effect on merozoite invasion and ring differentiation (P. falciparum merozoites): invasion itself was slowed down but not reduced; also recorded: failed to differentiate into an amoeboid ring-stage parasite

CC(C)(Nc1ccc(Cl)c(S(=O)(=O)N2CCOCC2)c1)C(=O)Nc1ccc(F)c(Cl)c1 [W-991]
effect on P. berghei parasitemia (P. berghei): does not reduce P. berghei parasitemia
